This is an account of results in patent US20100248960A1, “Method For Protecting Cereals From Being Infected By Fungi” (BASF SE, priority 2007, published 2010).

Experiment [1] has as its system Puccinia recondita. The experiment can be described thus: Curative control of brown rust on wheat caused by Puccinia recondita. The note with it: assessed after 8 days, efficacy in % of untreated control (90% infection), read-out: Observed activity (% infection); for inhibition at 0.063 ppm: 192 h; for inhibition at 0.25 ppm: sprayed 1 day after inoculation. The format is in vivo. On the procedure:
(§1) The active compounds were prepared as a stock solution comprising 25 mg of N-(trans-2-bicycloprop-2-ylphenyl)-3-difluoromethyl-1-methyl-1H-pyrazole-4-carboxamide (Ia), which was made up to 10 ml using a mixture of acetone and/or dimethyl sulfoxide and the emulsifier Wettol® EM31 (wetting agent having an emulsifying and dispersing action based on ethoxylated alkylphenols) in a ratio by volume of solvent/emulsifier of 99:1. The mixture was then made up to 100 ml with water. This stock solution was diluted with the solvent/emulsifier/water mixture described to give the concentration of active compound stated below. Epoxiconazole and metconazole were employed as a commercial finished formulation and diluted with water to the stated concentration of active compound.
(§2) The visually determined percentages of infected leaf areas were converted into efficacies in % of the untreated control.
(§3) The efficacy (E) is calculated as follows using Abbot's formula: […]
(§4) αcorresponds to the fungicidal infection of the treated plants in % and βcorresponds to the fungicidal infection of the untreated (control) plants in %
(§5) An efficacy of 0 means that, the infection level of the treated plants corresponds to that of the untreated control plants; an efficacy of 100 means that the treated plants were not infected.
(§6) The expected efficacies of active compound combinations were determined using Colby's formula (Colby, S.R. “Calculating synergistic and antagonistic responses of herbicide combinations”, Weeds, 15, pp. 20-22, 1967) and compared with the observed efficacies.
(§7) Colby's formula: E=x+y−x•y/100 • E expected efficacy, expressed in % of the untreated control, when using the mixture of the active compounds A and B at the concentrations a and b • x efficacy, expressed in % of the untreated control, when using the active compound A at the concentration a • y efficacy, expressed in % of the untreated control, when using the active compound B at the concentration b
The first two developed leaves of pot-grown wheat seedling were dusted with spores of Puccinia recondita. To ensure the success the artificial inoculation, the plants were transferred to a humid chamber without light and a relative humidity of 95 to 99% and 20 to 22° C. for 24 h. The next day the plants were sprayed to run-off with an aqueous suspension, containing the concentration of active ingredient as described below. The plants were allowed to air-dry. Then the trial plants were cultivated for 8 days in a greenhouse chamber at 22-26° C. and a relative humidity between 65 and 70%. The extent of fungal attack on the leaves was visually assessed as % diseased leaf area. The expected efficacies of mixtures of active compounds were determined using Colby's formula and compared with the observed efficacies.

In experiment [2] the test system is Puccinia recondita. The experiment can be described thus: Preventative control of brown rust on wheat caused by Puccinia recondita. In kind it is in vivo. As to conditions: efficacy in % of untreated control (90% infection), read-out: Observed activity (% infection); for inhibition at 1 ppm: sprayed 1 day before inoculation. On the procedure: as §1, §2, §3, §4, §5, §6, §7
The first two developed leaves of pot-grown wheat seedling were sprayed to run-off with an aqueous suspension, containing the concentration of active ingredient as described below. The next day the plants were inoculated with spores of Puccinia recondita. To ensure the success the artificial inoculation, the plants were transferred to a humid chamber without light and a relative humidity of 95 to 99% and 20 to 22° C. for 24 h. Then the trial plants were cultivated for 6 days in a greenhouse chamber at 22-26° C. and a relative humidity between 65 and 70%. The extent of fungal attack on the leaves was visually assessed as % diseased leaf area.
The expected efficacies of mixtures of active compounds were determined using Colby's formula and compared with the observed efficacies.

Molecules are shown by their SMILES.

Regarding `Fc1ccc([C@]2(Cn3cncn3)O[C@H]2c2ccccc2Cl)cc1` (racemic) [epoxiconazole], the inhibition at 0.063 ppm in the experiment on Puccinia recondita [1] was found to be 22%.
On to `CC1(C)CCC(Cc2ccc(Cl)cc2)C1(O)Cn1cncn1` (centres unmarked) [metconazole], for which the inhibition at 0.063 ppm with Puccinia recondita [2] (0.063 ppm) is 0%. Moreover, the inhibition at 1 ppm with Puccinia recondita [2] stood at 0%. For the same compound, the inhibition at 0.25 ppm with Puccinia recondita [1] came out at 44%.
Regarding `Cn1cc(C(=O)Nc2ccccc2[C@@H]2C[C@H]2C2CC2)c(C(F)F)n1` [Compound (Ia), N-(trans-2-bicycloprop-2-ylphenyl)-3-difluoromethyl-1-methyl-1H-pyrazole-4-carboxamide], the inhibition at 0.25 ppm with Puccinia recondita [2] (0.25 ppm) stood at 0%. In addition, the inhibition at 1 ppm in the experiment on Puccinia recondita [2] is 22%. For the same compound, in the experiment on Puccinia recondita [1], the inhibition at 0.063 ppm is 0% and the inhibition at 0.25 ppm worked out at 0%.
